Values after ≈ are worked out from the molar mass of the structure shown.
Tested on: Mycobacterium tuberculosis
Test: Antibacterial activity against Mycobacterium tuberculosis H37Rv by agar proportion method
Type: functional

CC(=O)NC[C@H]1CN(c2ccc(N3CCOCC3)c(F)c2)C(=O)O1 [LINEZOLID]
MIC: 0.5 µg/mL (≈ 1.48 µM)

— ChEMBL document CHEMBL1671852, “In vitro activities of linezolid against clinical isolates of Mycobacterium tuberculosis complex isolated in Taiwan over 10 years” (2008)
